# Data as given in patent publication US11332483B2, “Naphthoquinone containing gold carbene complexes and methods of uses thereof” (BOARD OF REGENTS, THE UNIVERSITY OF TEXAS SYSTEM, priority 2017, dated 2022).
# Read-outs that look alike come from different tables or passages of the source.
# Key:
# A549 lung cancer cells [1] = test: Cell proliferation (MTT) assay in A549 lung cancer cells; assay type: cell-based, human; conditions: for Fold Difference relative to 1: A549 IC50 relative to complex 1
# Protocol: (§1) Cells were harvested and seeded into 96-well culture plates (Costar 07-200-90) in 100 μL of culture media. They were allowed to incubate overnight at 37° C. in the presence of 5% CO2. A549 was seeded at a density of 1000 cells/well, A2780 at 2500 cells/well, A2780CP at 3000 cells/well, and PC-3 at 2000 cells/well. The next day, appropriate serial dilutions of drug stocks in culture media were made. To each well of a 96 well plate was added 100 μL of the appropriate solution. After a total of three days, a […] aliquot of 3 mg/mL tetrazolium dye, 344,5-dimethylthiazol-2-yl)-2,5-diphenyltetrazolium bromide (Alfa Aesar L11939) was added to each well, followed by a 4 hr incubation period at 37° C. The medium was then removed, the resulting formazan was dissolved in […] DMSO and the respective absorbances were measured at 560-650 nm using a microplate reader (Molecular Devices, Sunnyvale, Calif.). Absorbance values were corrected for background and then normalized to wells containing untreated cells to allow for plate-to-plate comparisons. The data are shown as mean inhibition of proliferation or growth as a percentage of control cells and are from 2-3 replicate experiments. Resulting dose response curves were subjected to linear regression analysis (Origin by OriginLab, Inc.) for determination of IC50 values.
# PC-3 prostate (p53 null) = test: Cell proliferation (MTT) assay in PC-3 prostate cells; assay type: cell-based; conditions: Table 3; error is standard error of the mean
# Protocol: (§2) Further anti-proliferation studies were carried out with complex 1 and its naphthoquinone component 4[H][Cl] using the following cell lines: A2780 ovarian (a wt-p53 cell line sensitive to platinum treatment), 2780CP ovarian (isogenic to A2780 but expressing multi-drug resistance (MDR)), and PC-3 prostate (p53 null) (Table 3).
# as §1, with “The data are shown as mean inhibition of proliferation or growth as a percentage of control cells and are from 2-3 replicate experiments. Resulting dose response curves were subjected to linear regression analysis (Origin by OriginLab, Inc.) for determination of IC50 values.” left out
# [2] = Electrochemical analysis (differential pulse voltammetry) in DMSO; assay type: physicochemical; conditions: 0.1M [N(nBu)4][PF6], 0.1 mM analyte, vs SCE
# Protocol: [Cl] (Guth et al., 2011; Gómez et al., 2003).
# 1,3-Dimesitylnapthoquinimidazolium chloride (Sanderson et al., 2006; Tennyson et al., 2010), (1,3-dimesityl-4,5-naphthoquino-imidazol-2-ylidene)-silver(I) chloride (Sanderson et al., 2006; Tennyson et al., 2010), (C4H2S)AuCl (Hashmi, et al., 2010) were prepared according to the literature procedures. All other reagents were purchased from commercial sources and used as received, including: [((CH3)3Si)2N]Na (NaHMDS) and silver(I) oxide. CD2Cl2 (99.9%) was purchased from Acros Laboratories in glass ampules and used as received. Solvents were either dried with a solvent purification system from the Inert Innovative Technology, Inc. (dichloromethane, diethyl ether, hexanes, tetrahydrofuran and toluene) or freshly distilled over 3 Å molecular sieves and degassed using three consecutive freeze-pump-thaw cycles prior to use. UV-vis spectra were obtained at ambient temperature with a Hewlett-Packard 8452A diode array spectrophotometer with molar absorptivities reported in M^−1 cm^−1. ^1H and ^13C NMR spectra were recorded on Bruker 300 MHz spectrometer. Spectra were referenced to the residual solvent as an internal standard, for ^1H NMR: CD2Cl2, 5.32 ppm and ^13C NMR: CD2Cl2, 53.84 ppm. High-resolution mass spectra (HRMS) were obtained with an Agilent Technologies 6530 Accurate Mass Q-TOF LC/MS (ESI) and are reported as m/z (relative intensity). Electroanalytical measurements were performed on a CHI620E electrochemical workstation using a silver wire quasi-reference electrode, a platinum disk working electrode and a Pt wire auxiliary electrode in a three-electrode cell under an atmosphere of nitrogen. […] All potentials listed herein were determined by differential pulse voltammetry and referenced to a saturated calomel electrode (SCE) by shifting ferrocene^0/+ to 0.435 V (DMSO) (Aranzaes et al., 2006). Spectroelectrochemistry measurements were obtained at ambient temperature with a custom designed three-electrode cell using Hewlett-Packard 8452A diode array spectrophotometer and CHI620E. Elemental analyses were performed by Midwest Microlab, LLC in Indianapolis, Ind. […] Trypsin (Hyclone SH30236.01) and Dulbecco's Phosphate Buffer Saline (Sigma R5886) were used for general cell maintenance and harvesting. Cell lines were obtained from the ATCC (A549 and PC-3) and Prof. Zahid Siddik at MD Anderson (A2780 and A2780CP). Thiazolyl blue tetrazolium bromide (Alfa Aesar L11939) was used for cell proliferation assays. Cell culture plastic ware consisted of generic T-75 flasks, 80.5 mm diameter culture dishes, and treated 96-well plates.
# [3] = system: thioredoxin reductase (TrxR) in A549 cells; test: Lipoate reduction assay of thioredoxin reductase activity in live cells; assay type: cell-based, human; conditions: for inhibition of TrxR (lipoate reduction): 6 h; for TrxR activity by lipoate reduction, time and dose dependence: A549, in words
# Protocol: To assess whether any or all of the present gold complexes could serve as TrxR inhibitors, standard tests involving the reduction of the oxidized form of the cell-permeable cofactor lipoate to its corresponding reduced form, dihydrolipoate, were carried out. […] [Cl] and 5 (cocktail), auranofin, and doxorubicin for 6 h. Post treatment, the live cells were monitored colorimetrically over 180 min for their ability to reduce lipoate (FIG. 5A).
# Cells were harvested and seeded at a density of 10,000 cells/well A549 in 96-well culture plates. They were then incubated overnight at 37° C. and 5% CO2. The next day, appropriate serial dilutions of drug stock in culture media were performed, and 100 μL of the appropriate solution were added to each well. Cells were returned to the incubator for 6 h. Afterwards, the liquid was then removed from each well by vacuum aspiration and replaced by 100 μL of 5 mM lipoate (Tokyo Chemical Industry Co., Ltd. L0207) and 1 mM DTNB (Acros Organics 117540050) in HBSS (Life tech 14025-092). The absorbance of each well at […] was recorded immediately and once every 20 min for three h on a microplate reader (Molecular Devices, Sunnyvale, Calif.). Plates were covered with aluminum foil between readings.
# [4] = system: A2780 ovarian (wt-p53, platinum sensitive); test: Cell proliferation (MTT) assay in A2780 ovarian cells; assay type: cell-based; conditions: Table 3; error is standard error of the mean
# Protocol: as §2
# as §1, with “The data are shown as mean inhibition of proliferation or growth as a percentage of control cells and are from 2-3 replicate experiments. Resulting dose response curves were subjected to linear regression analysis (Origin by OriginLab, Inc.) for determination of IC50 values.” left out
# [5] = system: 2780CP ovarian (multi-drug resistant); test: Cell proliferation (MTT) assay in 2780CP ovarian cells; assay type: cell-based; conditions: Table 3; error is standard error of the mean
# Protocol: as §2
# as §1, with “The data are shown as mean inhibition of proliferation or growth as a percentage of control cells and are from 2-3 replicate experiments. Resulting dose response curves were subjected to linear regression analysis (Origin by OriginLab, Inc.) for determination of IC50 values.” left out
# A549 cells [6] = test: Detection of intracellular ROS by flow cytometry (CM-H2DCFDA); assay type: cell-based, human; conditions: for intracellular ROS increase: A549, dose responsive, 6 h, in words
# Protocol: To establish whether or not the complexes of this disclosure would increase intracellular ROS levels, A549 cells were treated with each complex in a dose responsive manner.
# Tumor cells (1×10^6) were plated in a 6-well plate overnight and then incubated with media containing various complexes described at concentrations of 0.625-2.5 μM. Control cells were treated with vehicle only. After a 6 h. incubation, the cells were washed with PBS, detached with 0.250 mL 1× trypsin, collected in a 15 mL conical tube, and pelleted by centrifugation (3 min @ 300 g) at 5° C. The resulting pellet was again washed 2× with cold PBS and pelleted at 5° C. […] The cells were then pelleted, washed with 2 mL PBS, and re-suspended in PBS containing 2 μg/mL propidium iodide (PI, Chemodex P0023) for a final cell concentration of 0.5×10^6 cells/mL. Control samples of unstained cells, cells stained with only CM-H2DCFDA, and cells stained with only PI were also prepared. Each sample was added to one well of a 96-well plate. Samples were then subjected to FACS analysis using a Millipore Guava easyCyte 8 and analyzed using the Guava inCyte software.
# A549 cells [7] = conditions: A549, 24 h
# Protocol: Control cells were treated with vehicle only. At 24 h, the media was collected and the cells were washed with PBS. The PBS washing was collected and the attached cells were then subjected to 0.5× trypsin (diluted with PBS) for 2 min. All media and washings were collected, pelleted by centrifugation (3 min @ 300 g) and washed twice with cold PBS. […] After this, 100 μL of cell suspension was added to 1.5 mL centrifuge tubes, followed by 5 μL each of Annexin V-FITC and propidium iodide (PI, 50 μg/mL) solution. Control samples of unstained cells, cells stained with only Annexin V-FITC, and cells stained with only PI were also prepared. Samples were allowed to incubate in the dark for 15 min at ambient temperature. After incubation, each sample was diluted with 200 μL of Annexin V binding buffer, and the resulting 300 μL sample was added to one well of a 96-well plate. Samples were then subjected to FACS analysis using a Millipore Guava easyCyte 8 and analyzed using Guava inCyte software.
# A549 lung cancer cells [8] = test: ICP-MS detection of intracellular Au (cellular uptake)
# Protocol: Roughly 7−8×10^6 cells were grown to 70-80% confluence in T-75 cell culture flasks (Thermo 130190) and treated with respective compound in RPMI medium supplemented with 10% FBS and antibiotics for the desired incubation time. The medium was then removed and cells were washed with 8 mL 1× warm PBS. 2 mL 1×PBS was then added to each flask, and the cells were removed by scraping. Each cell suspension was then pipetted into a clean, labeled 15 mL centrifuge tube (Thermo 339650). Cells were pelleted by centrifuging at 1,000 rpm for 5 min in an Eppendorf 5804 with a swing-bucket rotor. The supernatant was removed by vacuum aspiration, and the pellet was resuspended in 50 μL autoclaved deionized water. Suspension/lysates were then kept at −80° C. until further use. After thawing, the lysates were then sonicated using a Branson Digital Sonifier, and 5 μL aliquots were taken for determination of protein content of the sample. Lysates were digested with 80 μL aqua regia and heated to 65° C. for 1 h. Digested lysates were diluted with 4 mL 3% Trace Metal Grade HCl and gold content was measured on a Perkin Elmer NexION 300× set to detect gold at 197 m/z. Gold concentrations were quantified using the linear range of a standard curve generated by serial dilution of an ICP-MS gold standard (Ricca MSAU1KH-100) in 3% HCl. Values were then normalized to protein content as determined using a Modified Lowry Protein Assay Kit (Thermo 23240) and known concentrations of bovine serum albumin (Fisher 9048-46-8).
# The Modified Lowry Assay was used to determine the protein content of each sample for normalization purposes. The standard curve for each run was made from a 2-fold serial dilution of fresh 5 mg/mL BSA solution. Aliquots were diluted to within the linear range of the standard curve using autoclaved DI water, and subjected to the Modified Lowry Assay in round-bottomed 96-well clear plates (Fisher 12565500). […] All other aspects of the procedure were as detailed in the microplate procedure instructions that come with the kit.
# [9] = A549 lung cancer cells, MTT, 72 h, read-out: IC50
# [10] = A549, higher concentrations (1.25-5.0 μM)
# [11] = A549, low concentrations (0.1-0.6 μM)
Compound,Fold Difference relative to 1 (A549 lung cancer cells [1]),IC50 (A549 lung cancer cells [1]; [9]),"E1/2 (V) DPV, first reduction, formation of semiquinone radical [2]","E1/2^b (V) DPV, second reduction, formation of quinone dianion [2]","inhibition of TrxR (lipoate reduction) [3, 10]","TrxR activity by lipoate reduction, time and dose dependence [3]","inhibition of TrxR (lipoate reduction) [3, 11]",intracellular ROS increase (A549 cells [6]),further results
"Cc1cc(C)c(-n2c[n+](-c3c(C)cc(C)cc3C)c3c2C(=O)c2ccccc2C3=O)c(C)c1.[Cl-] [Compound 4[H][Cl], 1,3-Dimesitylnaphthoquinimidazolium chloride, reference compound]",13.6,990 ± 120 nM,−0.38 V,−1.15 V,became evident,,,,"IC50 (A549 lung cancer cells [1]; A549 lung cancer cells, MTT, 72 h, listed as 4, read-out: IC50): 994 nM; IC50 (A549 lung cancer cells [1]; Table 3, error is standard error of the mean, read-out: IC50 A549 Lung): 994 ± 120 nM; IC50 (PC-3 prostate (p53 null)): 136 ± 20 nM; IC50 [4]: 159 ± 58 nM; IC50 [5]: 626 ± 117 nM; fluorescence associated cell population shift (intracellular ROS increase) (A549 cells [6]; A549, 2.5 μM, 6 h incubation): ~11 fold"
"O=C1[O][Pt]2([NH][C@@H]3CCCC[C@H]3[NH]2)[O]C1=O [oxaliplatin, reference compound]",,,,,,,,,"presence of CRT on cells (Panc-02 cells; Panc-02, 300 μM): 18.6±2.8 % of cells"
"COc1cccc2c1C(=O)c1c(O)c3c(c(O)c1C2=O)C[C@@](O)(C(=O)CO)C[C@@H]3O[C@H]1C[C@H](N)[C@H](O)[C@H](C)O1 [Doxorubicin, doxorubicin]",1.41,,,,remained inactive,no inhibition of activity,little to no inhibition,minimal or no ROS increase,"induction of apoptosis (annexin-V/PI) (A549 cells [7]): provided similar results in both the early and late stage apoptotic quadrants; IC50 (A549 lung cancer cells [1]; Homo sapiens, A549 lung cancer cells, MTT, 72 h, read-out: IC50): 103 ± 23 nM"
"Cc1cc(C)c(-n2c3c([n+](-c4c(C)cc(C)cc4C)[c]2[Au-][Cl])C(=O)c2ccccc2C3=O)c(C)c1 [Compound 3, (1,3-Dimesityl-4,5-naphthoquino-imidazol-2-ylidene)-gold(I) Chloride]",165,12100 nM,−0.47 V,−1.31 V,remained inactive,,,minimal or no ROS increase,intracellular Au levels (ICP-MS) (A549 lung cancer cells [8]): no intracellular Au was detected
Cc1cc(C)c(-n2c3c([n+](-c4c(C)cc(C)cc4C)[c]2[Au-][c]2n(-c4c(C)cc(C)cc4C)c4c([n+]2-c2c(C)cc(C)cc2C)C(=O)c2ccccc2C4=O)C(=O)c2ccccc2C3=O)c(C)c1.[Cl-] [Compound 2],1,,−0.46 V,−1.31 V,,performed similarly,,performed similarly,"presence of CRT on cells (Panc-02 cells; Panc-02, 0.1 μM): 6.1±1.6 % of cells; presence of CRT on cells (Panc-02 cells; Panc-02, 1.0 μM): 33.4±5.8 % of cells"
"CC(=O)OC[C@H]1O[C@@H]([S-])[C@H](OC(C)=O)[C@@H](OC(C)=O)[C@@H]1OC(C)=O.CCP(CC)CC.[Au+] [Auranofin, auranofin]",22.9,1670 ± 50 nM,,,,,inhibition of TrxR was apparent,minimal or no ROS increase,increase in intracellular Au concentrations as compared to complex 1 (A549 lung cancer cells [8]): 2-5 fold
